The first test has as its target T1, Recombinant human cathepsin S (CatS) (Homo sapiens, UniProt P25774).
T1 construct: made in house
Nature of the test: Recombinant human cathepsin S (CatS) fluorogenic substrate inhibition assay. It counts as biochemical.
Conditions: not given
The method, then: Recombinant human cathepsin S (CatS) was expressed in the baculovirus system and purified in one step with a thiopropyl-sepharose column. […] The assay is run in 150 mM sodium acetate pH 5.0 containing 1.5 mM DTT and 150 mM NaCl. […] Measurements are taken every min for 20 min. The rate is calculated from the slope of the increase in fluorescence and the percent inhibition is calculated from this.
T1 sequence (P25774 115-331): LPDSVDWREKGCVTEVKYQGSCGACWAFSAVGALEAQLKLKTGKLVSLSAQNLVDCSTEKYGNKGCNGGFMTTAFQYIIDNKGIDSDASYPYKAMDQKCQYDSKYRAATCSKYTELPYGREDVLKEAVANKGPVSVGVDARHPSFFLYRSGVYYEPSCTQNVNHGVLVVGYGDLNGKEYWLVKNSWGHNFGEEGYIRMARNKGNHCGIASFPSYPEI
`CS(=O)(=O)N1CCc2c(c(-c3ccc(C(F)(F)F)c(CNC(=O)c4cccc(C(=O)O)c4)c3)nn2CC(O)CN2CCCC2)C1` (stereo not drawn) [Example 191, N-{5-[1-(2-Hydroxy-3-pyrrolidin-1-yl-propyl)-5-methanesulfonyl-4,5,6,7-tetrahydro-1H-pyrazolo[4,3-c]pyridin-3-yl]-2-trifluoromethyl-benzyl]-isophthalamic acid]: the 50% inhibitory concentration (IC50) came out at 770 nM.
On to `CC(=O)NCC1CCN(CC(O)Cn2nc(-c3ccc(C(F)(F)F)c(CNC(=O)C=C(C)C)c3)c3c2CCN(S(C)(=O)=O)C3)CC1` (stereo not drawn) [Example 267, 3-Methyl-but-2-enoic acid 5-(1-{3-[4-(acetylamino-methyl)-piperidin-1-yl]-2-hydroxy-propyl}-5-methanesulfonyl-4,5,6,7-tetrahydro-1H-pyrazolo[4,3-c]pyridin-3-yl)-2-trifluoromethyl-benzylamide], for which the half-maximal inhibitory concentration (IC50) is 80 nM.

The test is the same for the next values; noted with them: average of results obtained; substrate Z-Valine-Valine-Arginine-AMC 10 μM, pH 5.0; read-out: CatS IC50.
Regarding `CS(=O)(=O)N1CCc2c(c(-c3ccc(C(F)(F)F)c(CNC(=O)c4ccc(F)cc4)c3)nn2CC(O)CN2CCC(CCO)CC2)C1` (stereo not drawn) [Example 91, 4-Fluoro-N-[5-(1-{2-hydroxy-3-[4-(2-hydroxy-ethyl)-piperidin-1-yl]-propyl}-5-methanesulfonyl-4,5,6,7-tetrahydro-1H-pyrazolo[4,3-c]pyridin-3-yl)-2-trifluoromethyl-benzyl]-benzamide], the 50% inhibitory concentration (IC50) amounted to 160 nM.
On the same count and under the same terms, then `CS(=O)(=O)N1CCc2c(c(-c3ccc(C(F)(F)F)c(CNC(=O)c4ccc(C(F)(F)F)cc4)c3)nn2CC(O)CN2CCCC2)C1` (stereo not drawn) [Example 225, N-{5-[1-(2-Hydroxy-3-pyrrolidin-1-yl-propyl)-5-methanesulfonyl-4,5,6,7-tetrahydro-1H-pyrazolo[4,3-c]pyridin-3-yl]-2-trifluoromethyl-benzyl]-4-trifluoromethyl-benzamide], with 750 nM; and `CS(=O)(=O)N1CCc2c(c(-c3ccc(C(F)(F)F)c(CNC(=O)c4ccccc4O)c3)nn2CCCN2CCC3(CCNC3=O)CC2)C1` [Example 150, 2-Hydroxy-N-(5-{5-methanesulfonyl-1-[3-(1-oxo-2,8-diaza-spiro[4.5]dec-8-yl)-propyl]-4,5,6,7-tetrahydro-1H-pyrazolo[4,3-c]pyridin-3-yl}-2-trifluoromethyl-benzyl)-benzamide], with 240 nM; and `COC1CCN(CC(O)Cn2nc(-c3ccc(Cl)c(CNC(=O)c4ccc(F)cc4)c3)c3c2CCN(S(C)(=O)=O)C3)CC1` (stereo not drawn) [Example 75, N-(2-Chloro-5-{1-[2-hydroxy-3-(4-methoxy-piperidin-1-yl)-propyl]-5-methanesulfonyl-4,5,6,7-tetrahydro-1H-pyrazolo[4,3-c]pyridin-3-yl}-benzyl)-4-fluoro-benzamide], with 140 nM.
As to `CS(=O)(=O)N1CCc2c(c(-c3ccc(C(F)(F)F)c(CNC(=O)c4ccc(F)cc4)c3)nn2CCCN2CCC3(CCNC3=O)CC2)C1` [Example 41, 4-Fluoro-N-(5-{5-methanesulfonyl-1-[3-(1-oxo-2,8-diaza-spiro[4.5]dec-8-yl)-propyl]-4,5,6,7-tetrahydro-1H-pyrazolo[4,3-c]pyridin-3-yl}-2-trifluoromethyl-benzyl)-benzamide], the IC50 is 40 nM.
Same read-out and setting: then `CS(=O)(=O)N1CCc2c(c(-c3ccc(Cl)c(CNC(=O)c4ccc(F)cc4)c3)nn2CC(O)CN2CCC(F)(F)CC2)C1` (stereo not drawn) [Example 10, N-(2-Chloro-5-{1-[3-(4,4-difluoro-piperidin-1-yl)-2-hydroxy-propyl]-5-methanesulfonyl-4,5,6,7-tetrahydro-1H-pyrazolo[4,3-c]pyridin-3-yl}-benzyl)-4-fluoro-benzamide], with 90 nM.
Turning to `COC1CCC(C(=O)NCc2cc(-c3nn(CC(O)CN4CCCC4)c4c3CN(S(C)(=O)=O)CC4)ccc2C(F)(F)F)CC1` (stereo not drawn) [Example 186, 4-Methoxy-cyclohexanecarboxylic acid 5-[1-(2-hydroxy-3-pyrrolidin-1-yl-propyl)-5-methanesulfonyl-4,5,6,7-tetrahydro-1H-pyrazolo[4,3-c]pyridin-3-yl]-2-trifluoromethyl-benzylamide], the IC50 was 3100 nM.
Still for that read-out and setting: then `CC(C)CC(=O)NCc1cc(-c2nn(CC(O)CN3CCC(C)(C)CC3)c3c2CN(S(C)(=O)=O)CC3)ccc1C(F)(F)F` (stereo not drawn) [Example 251, N-(5-{1-[3-(4,4-Dimethyl-piperidin-1-yl)-2-hydroxy-propyl]-5-methanesulfonyl-4,5,6,7-tetrahydro-1H-pyrazolo[4,3-c]pyridin-3-yl}-2-trifluoromethyl-benzyl)-3-methyl-butyramide], with 300 nM; and `CS(=O)(=O)N1CCc2c(c(-c3ccc(Cl)c(CNC(=O)c4cccnc4)c3)nn2CCCN2CCCC2)C1` [Example 232, N-{2-Chloro-5-[5-methanesulfonyl-1-(3-pyrrolidin-1-yl-propyl)-4,5,6,7-tetrahydro-1H-pyrazolo[4,3-c]pyridin-3-yl]-benzyl}-nicotinamide], with 820 nM.
On the same count and under the same terms, with `CS(=O)(=O)N1CCc2c(c(-c3ccc(Cl)c(CNC(=O)/C=C/c4ccccc4)c3)nn2CCCN2CCCC2)C1` [Example 219, N-{2-Chloro-5-[5-methanesulfonyl-1-(3-pyrrolidin-1-yl-propyl)-4,5,6,7-tetrahydro-1H-pyrazolo[4,3-c]pyridin-3-yl]-benzyl}-3-phenyl-acrylamide] the figure was 640 nM.
For `C/N=c1/ccccn1CC(O)Cn1nc(-c2ccc(Cl)c(CNC(=O)c3ccc(F)cc3)c2)c2c1CCN(S(C)(=O)=O)C2` (stereo not drawn) [Example 221, N-(2-Chloro-5-{1-[2-hydroxy-3-(2-methylimino-2H-pyridin-1-yl)-propyl]-5-methanesulfonyl-4,5,6,7-tetrahydro-1H-pyrazolo[4,3-c]pyridin-3-yl}-benzyl)-4-fluoro-benzamide], the IC50 came to 670 nM.
As for `CC(C)N1CCN(CC(O)Cn2nc(-c3ccc(C(F)(F)F)c(CNC(=O)c4ccc(F)cc4)c3)c3c2CCN(S(C)(=O)=O)C3)CC1` (stereo not drawn) [Example 20, 4-Fluoro-N-(5-{1-[2-hydroxy-3-(4-isopropyl-piperazin-1-yl)-propyl]-5-methanesulfonyl-4,5,6,7-tetrahydro-1H-pyrazolo[4,3-c]pyridin-3-yl}-2-trifluoromethyl-benzyl)-benzamide], the half-inhibitory concentration (IC50) came out at 400 nM.
Same read-out and setting: with `CS(=O)(=O)N1CCc2c(c(-c3ccc(C(F)(F)F)c(CNC(=O)C4CCCCCC4)c3)nn2CC(O)CN2CCCC2)C1` (stereo not drawn) [Example 160, Cycloheptanecarboxylic acid 5-[1-(2-hydroxy-3-pyrrolidin-1-yl-propyl)-5-methanesulfonyl-4,5,6,7-tetrahydro-1H-pyrazolo[4,3-c]pyridin-3-yl]-2-trifluoromethyl-benzylamide] the figure was 320 nM; with `CC(C)=CC(=O)NCc1cc(-c2nn(CC(O)CN3CCC(N(C)C)C3)c3c2CN(S(C)(=O)=O)CC3)ccc1C(F)(F)F` (stereo not drawn) [Example 33, 3-Methyl-but-2-enoic acid 5-{1-[3-(3-dimethylamino-pyrrolidin-1-yl)-2-hydroxy-propyl]-5-methanesulfonyl-4,5,6,7-tetrahydro-1H-pyrazolo[4,3-c]pyridin-3-yl}-2-trifluoromethyl-benzylamide], 460 nM.
Same read-out and setting: then `CS(=O)(=O)N1CCc2c(c(-c3ccc(C(F)(F)F)c(CNC(=O)c4ccc(F)cc4)c3)nn2CCCN2CCC(O)C2)C1` (stereo not drawn) [Example 40, 4-Fluoro-N-(5-{1-[3-(3-hydroxy-pyrrolidin-1-yl)-propyl]-5-methanesulfonyl-4,5,6,7-tetrahydro-1H-pyrazolo[4,3-c]pyridin-3-yl}-2-trifluoromethyl-benzyl)-benzamide], with 90 nM; and `CC(=O)N1CCN(CC(O)Cn2nc(-c3ccc(C(F)(F)F)c(CNC(=O)c4ccc(F)cc4)c3)c3c2CCN(S(C)(=O)=O)C3)CC1` (stereo not drawn) [Example 21, N-(5-{1-[3-(4-Acetyl-piperazin-1-yl)-2-hydroxy-propyl]-5-methanesulfonyl-4,5,6,7-tetrahydro-1H-pyrazolo[4,3-c]pyridin-3-yl}-2-trifluoromethyl-benzyl)-4-fluoro-benzamide], with 300 nM.

Source of the values: patent US20090118274A1, “MONOCYCLIC AMINOPROPYL TETRAHYDRO-PYRAZOLO-PYRIDINE MODULATORS OF CATHEPSIN S” (priority 2007, published 2009).
